Data: patent US20080025960A1, “Detergents with stabilized enzyme systems” (priority 2006, published 2008)

How the values were obtained:
[1] = target: T1, glucose oxidase (Aspergillus niger, UniProt P13006); assay: Hydrogen peroxide generation by glucose oxidase after dilution of the mixture in laundry wash liquor, dipsticks; type: biochemical; settings: for Hydrogen Peroxide Generation, PPM H2O2 / H2O2 PPM: wash liquor, 1 mM glucose; for Hydrogen Peroxide Generation, PPM H2O2: 1 PPM oxidase; for character of glucose oxidase inhibition: inhibited at high substrate concentration in detergent, inhibition disappears upon dilution in wash water, concentration-dependent; for hydrogen peroxide produced: liquid detergent formulations after 3 weeks of storage with inhibitor, diluted in wash liquor; for H2O2 generated: wash liquor control containing buffer
T1 construct: purchased Genencor OXYGO L-5000
T1 sequence (P13006 17-605): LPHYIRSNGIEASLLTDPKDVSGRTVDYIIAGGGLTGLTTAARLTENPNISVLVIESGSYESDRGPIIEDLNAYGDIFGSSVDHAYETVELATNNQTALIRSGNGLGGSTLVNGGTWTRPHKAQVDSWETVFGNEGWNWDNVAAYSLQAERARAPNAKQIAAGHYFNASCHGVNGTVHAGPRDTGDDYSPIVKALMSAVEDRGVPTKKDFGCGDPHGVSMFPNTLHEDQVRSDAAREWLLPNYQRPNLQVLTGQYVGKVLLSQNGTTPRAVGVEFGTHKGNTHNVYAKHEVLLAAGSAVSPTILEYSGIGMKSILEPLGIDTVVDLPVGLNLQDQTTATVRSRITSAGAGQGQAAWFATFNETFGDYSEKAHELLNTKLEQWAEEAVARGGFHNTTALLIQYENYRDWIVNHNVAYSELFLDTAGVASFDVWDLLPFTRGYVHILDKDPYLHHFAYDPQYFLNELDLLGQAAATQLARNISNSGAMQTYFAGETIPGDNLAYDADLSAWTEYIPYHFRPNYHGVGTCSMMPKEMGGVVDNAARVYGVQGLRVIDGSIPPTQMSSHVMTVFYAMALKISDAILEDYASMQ
Description: In these experiments, 100 mM Tris pH 8.3 with 0.005% TWEEN®-100 surfactant was used as a positive control. The choice of pH 8.3 was based upon the measured pH of the AATCC detergent. Three two-ml tubes containing 0.990 g of AATCC detergent (lot # 01282004) and another three tubes with 0.990 g of control buffer were weighed. Then, 90 mg (500 mM) glucose substrate was added to each tube. […] All of the tubes were placed on a rotary plate for an hour to allow good mixing and solubilization of glucose into the detergent. Then, 6 tubes containing five-ml wash water (5 mM HEPES with 6 GPG, pH 8) were prepared. Next, 500 PPM (0.5 mg, 14.88 ul) glucose oxidase (OXYGO™ L-5000, 5379 U/ml; 33.6 mg/ml; Genencor) was added to six 2-ml tubes (three with glucose/bisulfite containing control buffers and three with glucose/bisulfite containing AATCC detergent). All of the tubes were then set on the rotary plate (60 rpm) at room temperature. H2O2 production was measured using dipsticks (peroxidase/ABTS), as described in Example 1, for t=0+ minutes, 12 minutes, and 30 minutes. Immediately after addition of the enzyme to the detergent and control mixtures, 10 ul of the mixture were removed and mixed with 5 ml of wash water. All of the tubes were also then checked for hydrogen peroxide using dipsticks at 12 and 30 minutes. With 5 ml wash liquor, the final glucose oxidase enzyme concentration was 1 PPM and the glucose concentration was 1 mM.
In these experiments, 100 mM Tris pH 8.3 with 0.005% TWEEN®-100 surfactant was used as a positive control. The choice of pH 8.3 was based upon the measured pH of the AATCC detergent. Three two-ml tubes containing 0.990 g of AATCC detergent (lot # 01282004) and another three tubes with 0.990 g of control buffer were weighed. Then, 90 mg (500 mM) glucose substrate was added to each tube. Then, 100, 50, and 10 mM sodium metabisulfite were added to each tube respectively (i.e., both control buffer and AATCC detergent-containing tubes). All of the tubes were placed on a rotary plate for an hour to allow good mixing and solubilization of glucose into the detergent. Then, 6 tubes containing five-ml wash water (5 mM HEPES with 6 GPG, pH 8) were prepared. Next, 500 PPM (0.5 mg, 14.88 ul) glucose oxidase (OXYGO™ L-5000, 5379 U/ml; 33.6 mg/ml; Genencor) was added to six 2-ml tubes (three with glucose/bisulfite containing control buffers and three with glucose/bisulfite containing AATCC detergent). All of the tubes were then set on the rotary plate (60 rpm) at room temperature. H2O2 production was measured using dipsticks (peroxidase/ABTS), as described in the above Examples, for t=0+ minutes, 12 minutes, and 30 minutes. Immediately after addition of the enzyme to the detergent and control mixtures, 10 ul of the mixture were removed and mixed with 5 ml of wash water. All of the tubes were also then checked for hydrogen peroxide using dipsticks at 12 and 30 minutes. With 5 ml wash liquor, the final glucose oxidase enzyme concentration was 1 PPM and the glucose concentration was 1 mM.

[2] = target: T2, alcohol oxidase (Pichia angusta, UniProt P04841); assay: Hydrogen peroxide concentration in wash liquor with alcohol oxidase, ethanol and inhibitor; type: biochemical, Hansunela sp.; settings: 2 mM ethanol, 0.02U enzyme, 0.2 mM inhibitor
T2 construct: purchased Sigma
T2 sequence (P04841 whole entry): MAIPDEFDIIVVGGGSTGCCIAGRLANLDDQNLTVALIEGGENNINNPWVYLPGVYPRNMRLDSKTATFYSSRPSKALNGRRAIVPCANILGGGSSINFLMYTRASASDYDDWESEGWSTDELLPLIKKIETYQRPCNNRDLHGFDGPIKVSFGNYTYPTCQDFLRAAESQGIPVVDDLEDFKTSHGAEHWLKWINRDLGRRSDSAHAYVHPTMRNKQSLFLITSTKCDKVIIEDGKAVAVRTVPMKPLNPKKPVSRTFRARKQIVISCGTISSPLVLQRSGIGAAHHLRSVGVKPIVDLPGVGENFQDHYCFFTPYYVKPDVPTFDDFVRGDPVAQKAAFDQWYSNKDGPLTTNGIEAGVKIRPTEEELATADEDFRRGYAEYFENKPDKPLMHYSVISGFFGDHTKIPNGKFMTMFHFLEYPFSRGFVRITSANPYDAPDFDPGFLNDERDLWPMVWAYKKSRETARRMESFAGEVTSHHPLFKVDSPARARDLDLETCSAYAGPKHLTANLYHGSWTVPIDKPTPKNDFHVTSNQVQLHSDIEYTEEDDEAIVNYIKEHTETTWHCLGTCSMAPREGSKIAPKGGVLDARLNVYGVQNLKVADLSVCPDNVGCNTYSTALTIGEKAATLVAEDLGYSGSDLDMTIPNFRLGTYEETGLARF
Description: The stability and activity of the alcohol oxidase enzyme (described in Example 5) in AATCC liquid detergent (Sigma, 100 U/ml. 22 U/mg, 13 mg total solid in vial, 7.7 U/mg solid) was tested upon dilution into wash liquor. In these experiments, 10 U of alcohol oxidase were used in liquid detergent stock for each experiment. In addition, 1M ethanol (substrate) was mixed in detergent (46 mg ethanol in 990 mg detergent). […] In these experiments, 10 ul of final detergent mix or control mix were added to 5 ml of wash liquor. The same methods as described in Examples 2 and 4 were used in these experiments.

[3] = target: T3, choline oxidase (Arthrobacter globiformis, UniProt Q7X2H8); assay: H2O2 in control buffer or AATCC liquid detergent stock with choline oxidase, choline and inhibitor; type: biochemical; settings: for H2O2 PPM: T = 0+, 12, 30 and 60, 1M choline chloride, 10U choline oxidase, 100 mM sodium bisulfite inhibitor (pH7)
T3 sequence (Q7X2H8 1-546): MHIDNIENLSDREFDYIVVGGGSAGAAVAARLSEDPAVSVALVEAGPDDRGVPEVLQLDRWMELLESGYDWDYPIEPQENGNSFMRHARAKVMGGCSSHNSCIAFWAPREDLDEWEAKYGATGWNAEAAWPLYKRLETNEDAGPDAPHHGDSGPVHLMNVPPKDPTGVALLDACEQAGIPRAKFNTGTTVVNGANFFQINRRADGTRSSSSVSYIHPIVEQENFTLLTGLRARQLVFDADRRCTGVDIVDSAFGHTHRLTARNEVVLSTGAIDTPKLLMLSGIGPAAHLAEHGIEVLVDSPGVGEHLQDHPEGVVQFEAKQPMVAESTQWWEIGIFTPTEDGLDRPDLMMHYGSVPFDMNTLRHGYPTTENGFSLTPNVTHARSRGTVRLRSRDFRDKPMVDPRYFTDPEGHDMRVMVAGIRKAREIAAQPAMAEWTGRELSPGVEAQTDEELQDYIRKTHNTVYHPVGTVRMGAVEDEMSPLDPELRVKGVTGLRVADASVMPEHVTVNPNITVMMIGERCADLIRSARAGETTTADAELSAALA
Description: In this Example, experiments conducted to assess the stabilization of choline oxidase in the presence of its substrate (i.e., choline) and an inhibitor (i.e., sodium bisulfite and 2-amino,2-methyl,1-propanol) is described. In these experiments, AATCC standard detergent was used.
The experiments were conducted as described in Example 1. Choline oxidase produces two moles of H2O2 per mole of choline. The results obtained in these experiments confirmed that choline oxidase was stable in AATCC detergent over 24 hour period tested in presence of choline and inhibitors. […] Upon dilution in wash liquor, detergent containing choline oxidase, choline chloride and an inhibitor (e.g., sodium hydrogen sulfite or 2-amino,2-methyl,1-propanol) produced H2O2 over time, as indicated in Table 5.

O=S([O-])O.[Na+] [bisulfite, sodium hydrogen sulfite]
Hydrogen Peroxide Generation, PPM H2O2 ([1]; AATCC Detergent, T = 12 (second line so headed, after the T = 30 lines), 0.2 mM bisulfite): ˜10 PPM
Hydrogen Peroxide Generation, PPM H2O2 ([1]; AATCC Detergent, T = 12 min, 0.02 mM bisulfite): 3 PPM
Hydrogen Peroxide Generation, PPM H2O2 ([1]; AATCC Detergent, T = 12 min, 0.1 mM bisulfite): 3 PPM
Hydrogen Peroxide Generation, PPM H2O2 ([1]; AATCC Detergent, T = 12 min, 0.2 mM bisulfite): 3 PPM
Hydrogen Peroxide Generation, PPM H2O2 ([1]; AATCC Detergent, T = 30 min, 0.02 mM bisulfite): 10 PPM
Hydrogen Peroxide Generation, PPM H2O2 ([1]; AATCC Detergent, T = 30 min, 0.1 mM bisulfite): ˜10 PPM
Hydrogen Peroxide Generation, PPM H2O2 ([1]; Control Buffer, T = 12 (second line so headed, after the T = 30 lines), 0.2 mM bisulfite): ˜3 PPM
Hydrogen Peroxide Generation, PPM H2O2 ([1]; Control Buffer, T = 30 min, 0.02 mM bisulfite): 10 PPM
Hydrogen Peroxide Generation, PPM H2O2 ([1]; Control Buffer, T = 30 min, 0.1 mM bisulfite): ˜10 PPM
character of glucose oxidase inhibition [1]: reversible inhibitor
hydrogen peroxide generated ([1]; wash liquor containing AATCC detergent, all three bisulfite inhibitor concentrations, 12 minutes): > 3 PPM
hydrogen peroxide generated ([1]; wash liquor with AATCC detergent, all three bisulfite inhibitor concentrations, 30 minutes): ~10 PPM
H2O2 PPM ([2]; AATCC Detergent, T = 0+): 0 PPM
H2O2 PPM ([2]; AATCC Detergent, T = 12 min): 0 PPM
H2O2 PPM ([2]; AATCC Detergent, T = 30 min): 0 PPM
H2O2 PPM ([2]; AATCC Detergent, T = 120 min): >3 (hydrogen sulfite) PPM
H2O2 PPM ([2]; Control Buffer, T = 0+): 0 PPM
H2O2 PPM ([2]; Control Buffer, T = 12 min): 0 PPM
H2O2 PPM ([2]; Control Buffer, T = 30 min): 0 PPM
H2O2 PPM ([2]; Control Buffer, T = 120 min): 1 (hydrogen sulfite) PPM
H2O2 PPM ([3]; AATCC Detergent): 0 PPM
H2O2 PPM ([3]; Control Buffer): 0 PPM
premature generation of H2O2 in AATCC detergent stock ([3]; sodium hydrogen sulfite 100 mM concentration): able to stop premature generation of H2O2
character of choline oxidase inhibition ([3]; sodium hydrogen sulfite at 100 mM concentration tested): reversible inhibitor

O=S([O-])S(=O)(=O)[O-].[Na+].[Na+] [sodium metabisulfite]
H2O2 PPM ([1]; AATCC Detergent, T = 12 min, 1 PPM enzyme, 0.2 mM sodium metabisulfite): 3 PPM
H2O2 PPM ([1]; AATCC Detergent, T = 30 min, 1 PPM enzyme, 0.2 mM sodium metabisulfite): ˜10 PPM
H2O2 PPM ([1]; AATCC Detergent, T = 60 min, 1 PPM glucose oxidase, 0.2 mM sodium metabisulfite): >10 PPM
H2O2 PPM ([1]; Control Buffer, T = 12 min, 1 PPM enzyme, 0.2 mM sodium metabisulfite (100 mM in formulation)): ~3 PPM
H2O2 PPM ([1]; Control Buffer, T = 12 min, 1 PPM enzyme, 0.2 mM sodium metabisulfite (100 mM in formulation), listed as sodium metabisulftie): 1 PPM
H2O2 PPM ([1]; Control Buffer, T = 30 min, 1 PPM enzyme, 0.2 mM sodium metabisulfite): 3 PPM
H2O2 PPM ([1]; Control Buffer, T = 60 min, 1 PPM glucose oxidase, 0.2 mM sodium metabisulfite): 10 PPM
character of glucose oxidase inhibition [1]: reversible inhibitor
hydrogen peroxide produced ([1]; 12 minutes): 3 PPM
hydrogen peroxide produced ([1]; 30 minutes): ~10 PPM
hydrogen peroxide generated ([1]; wash liquor containing AATCC detergent, all three metabisulfite inhibitor concentrations, 12 minutes): > 3 PPM
H2O2 generated ([1]; 10 mM metabisulfite (formulation), 12 minutes): about 10 PPM
H2O2 generated ([1]; 50 mM metabisulfite (formulation), 12 minutes): about 10 PPM
hydrogen peroxide generated ([1]; wash liquor with AATCC detergent, all three metabisulfite inhibitor concentrations, 30 minutes): ~10 PPM
H2O2 PPM ([2]; AATCC Detergent, T = 12 min): 0 PPM
H2O2 PPM ([2]; AATCC Detergent, T = 30 min): 0 PPM
H2O2 PPM ([2]; AATCC Detergent, T = 120 min): 1 (metabisulfite) PPM
H2O2 PPM ([2]; Control Buffer, T = 0+): 0 PPM
H2O2 PPM ([2]; Control Buffer, T = 12 min): 0 PPM
H2O2 PPM ([2]; Control Buffer, T = 30 min): 0 PPM
H2O2 PPM ([2]; Control Buffer, T = 120 min): 0 (metabisulfite) PPM
